This test concerns the target CDK12 (Homo sapiens, UniProt Q9NYV4). The experiment in a line: Biochemical assay for CDK12 (LANCE TR-FRET, IC50 determination). To be noted: for IC50: CDK12, IC50 class; for inhibition at 10 µM: read-out: CDK12 % Inhibition @ 10 μM. An outline of the steps: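 30 nM CDK12 phosphorylated 100 nM ULight-4E-BP1 (Thr37/Thr46) peptide at 100 µM ATP, as printed, in HEPES pH 7.5 buffer with MgCl2 and DTT. Compound and enzyme were preincubated 60 min, then reacted 60 min at room temperature before stopping with EDTA and Eu anti-phospho antibody. TR-FRET 665/615 ratio gave sigmoidal IC50 fits.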
Background: TR-FRET usually uses a lanthanide donor and a delayed reading to cut background.

29 molecules from US20260000692A1, “Substituted N-(Pyridin-2-yl)Acetamide Derivatives as CDK12/13 Inhibitors” (Aurigene Oncology Limited, priority 2022, published 2026) can be followed below.

Read-outs that look alike come from different tables or passages of the source.

Chain of CDK12 (Q9NYV4 whole entry): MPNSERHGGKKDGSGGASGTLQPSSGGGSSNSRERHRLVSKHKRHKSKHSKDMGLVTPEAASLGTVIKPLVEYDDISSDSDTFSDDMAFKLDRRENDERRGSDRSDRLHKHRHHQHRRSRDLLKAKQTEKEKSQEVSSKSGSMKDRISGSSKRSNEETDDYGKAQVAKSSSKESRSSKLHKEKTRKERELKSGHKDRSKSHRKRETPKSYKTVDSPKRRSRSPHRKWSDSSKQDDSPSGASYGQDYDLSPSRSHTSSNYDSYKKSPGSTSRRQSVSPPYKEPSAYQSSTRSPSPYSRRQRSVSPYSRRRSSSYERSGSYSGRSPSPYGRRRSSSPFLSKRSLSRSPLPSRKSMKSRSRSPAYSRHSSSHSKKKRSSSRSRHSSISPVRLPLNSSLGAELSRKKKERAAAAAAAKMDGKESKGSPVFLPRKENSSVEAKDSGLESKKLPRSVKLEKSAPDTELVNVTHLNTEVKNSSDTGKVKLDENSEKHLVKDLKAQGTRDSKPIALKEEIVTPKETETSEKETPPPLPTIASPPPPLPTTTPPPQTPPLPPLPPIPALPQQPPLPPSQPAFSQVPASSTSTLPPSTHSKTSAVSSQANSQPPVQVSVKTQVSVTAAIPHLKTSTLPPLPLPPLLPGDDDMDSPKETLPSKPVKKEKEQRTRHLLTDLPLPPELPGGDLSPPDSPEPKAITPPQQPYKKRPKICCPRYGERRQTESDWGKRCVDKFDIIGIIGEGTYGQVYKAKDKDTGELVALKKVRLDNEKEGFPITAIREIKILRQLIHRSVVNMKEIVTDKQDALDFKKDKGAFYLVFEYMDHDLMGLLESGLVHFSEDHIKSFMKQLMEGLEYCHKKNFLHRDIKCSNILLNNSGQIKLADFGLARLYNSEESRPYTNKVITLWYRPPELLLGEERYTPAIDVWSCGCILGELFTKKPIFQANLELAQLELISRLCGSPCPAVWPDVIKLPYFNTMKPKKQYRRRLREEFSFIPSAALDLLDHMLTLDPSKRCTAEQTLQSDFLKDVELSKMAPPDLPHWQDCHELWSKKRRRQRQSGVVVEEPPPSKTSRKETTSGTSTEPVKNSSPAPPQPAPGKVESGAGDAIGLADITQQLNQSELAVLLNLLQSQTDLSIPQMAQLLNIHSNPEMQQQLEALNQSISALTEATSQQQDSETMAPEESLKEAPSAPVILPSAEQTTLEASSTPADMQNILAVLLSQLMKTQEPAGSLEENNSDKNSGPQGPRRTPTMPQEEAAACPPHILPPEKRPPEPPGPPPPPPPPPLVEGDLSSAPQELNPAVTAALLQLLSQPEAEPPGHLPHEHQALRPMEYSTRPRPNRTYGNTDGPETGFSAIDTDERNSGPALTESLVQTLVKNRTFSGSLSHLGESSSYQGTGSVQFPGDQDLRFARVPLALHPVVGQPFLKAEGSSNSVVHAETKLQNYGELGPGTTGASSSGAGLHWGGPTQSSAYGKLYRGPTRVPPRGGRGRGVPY
Chain of CDK12 (O75909 whole entry partner): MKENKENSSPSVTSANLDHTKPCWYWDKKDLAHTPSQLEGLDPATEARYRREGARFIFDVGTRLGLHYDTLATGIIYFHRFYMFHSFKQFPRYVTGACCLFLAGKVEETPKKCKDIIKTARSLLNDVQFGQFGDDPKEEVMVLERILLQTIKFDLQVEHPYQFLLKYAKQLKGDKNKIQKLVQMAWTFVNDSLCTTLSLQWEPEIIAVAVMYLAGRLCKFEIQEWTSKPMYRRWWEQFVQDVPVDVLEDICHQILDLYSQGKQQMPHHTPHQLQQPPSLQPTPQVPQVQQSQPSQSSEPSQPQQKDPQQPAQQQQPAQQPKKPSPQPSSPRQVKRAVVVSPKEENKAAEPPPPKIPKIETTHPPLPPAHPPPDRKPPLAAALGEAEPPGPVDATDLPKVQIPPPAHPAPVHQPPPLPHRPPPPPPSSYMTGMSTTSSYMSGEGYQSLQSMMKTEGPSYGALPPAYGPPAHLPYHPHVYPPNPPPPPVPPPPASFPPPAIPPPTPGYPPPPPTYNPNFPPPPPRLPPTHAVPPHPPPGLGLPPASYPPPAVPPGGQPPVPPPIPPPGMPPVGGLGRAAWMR

With `N#CN1CCCC(c2ccc(CC(=O)Nc3cc(O[C@@H]4CCOC4)c(Cl)cn3)cn2)C1` (stereo partly drawn) [Compound 92, N-(5-chloro-4-(((R)-tetrahydrofuran-3-yl)oxy)pyridin-2-yl)-2-(6-(1-cyanopiperidin-3-yl)pyridin-3-yl)acetamide], the concentration for half-maximal inhibition (IC50) (read-out: IC50 μM (in range)) lay in the range of 0.01 to 0.1 µM. Besides, the inhibition at 10 µM (compound at 10 μM) is 90%.

`N#CN1CCCC(c2ccc(CC(=O)Nc3cc(O[C@H]4CCOC4)c(Cl)cn3)cn2)C1` (stereo partly drawn) [Compound 95, N-(5-chloro-4-(((S)-tetrahydrofuran-3-yl)oxy)pyridin-2-yl)-2-(6-(1-cyanopiperidin-3-yl)pyridin-3-yl)acetamide]: the IC50 (read-out: IC50 μM (in range)) lay in the range of 0.01 to 0.1 µM. For the same molecule, the inhibition at 10 µM (compound at 10 μM) is 90%. Turning to `N#CN1CCC(c2ccc(CC(=O)Nc3cc(O[C@@H]4CCOC4)c(Cl)cn3)cn2)CC1` [Compound 98, (R)-N-(5-chloro-4-((tetrahydrofuran-3-yl)oxy)pyridin-2-yl)-2-(6-(1-cyanopiperidin-4-yl)pyridin-3-yl)acetamide], the IC50 (read-out: IC50 μM (in range)) lay in the range of 0.01 to 0.1 µM. Also, the inhibition at 10 µM (compound at 10 μM) worked out at 87%. Taken in the same sequence, the figures for `N#CN1CCC(c2ccc(CC(=O)Nc3cc(O[C@H]4CCOC4)c(Cl)cn3)cn2)CC1` [Compound 99, (S)-N-(5-chloro-4-((tetrahydrofuran-3-yl)oxy)pyridin-2-yl)-2-(6-(1-cyanopiperidin-4-yl)pyridin-3-yl)acetamide] were 0.01 to 0.1 µM and 95%. For the molecule `CN(C)C(=O)Oc1cc(NC(=O)Cc2ccc(C3=CCN(C#N)CC3)nc2)ncc1Cl` [Compound 100, 5-chloro-2-(2-(1′-cyano-1′,2′,3′,6′-tetrahydro-[2,4′-bipyridin]-5-yl)acetamido)pyridin-4-yl dimethylcarbamate], the inhibition at 10 µM was 77%. Under “IC50 μM (in range)”, this molecule had an IC50 of 0.01 to 0.1 µM. In the case of `CN(C)C(=O)Oc1cc(NC(=O)Cc2ccc(C3CCN(C#N)CC3)nc2)ncc1Cl` [Compound 101, 5-chloro-2-(2-(6-(1-cyanopiperidin-4-yl)pyridin-3-yl)acetamido)pyridin-4-yl dimethylcarbamate], the inhibition at 10 µM was determined as 86%. The molecule further registered a half-inhibitory concentration (IC50) (IC50 μM (in range)) greater than 0.1 µM. `N#CN1CCC=C(c2ccc(CC(=O)Nc3ccccn3)cn2)C1` [Compound 102, 2-(1′-cyano-1′,2′,5′,6′-tetrahydro-[2,3′-bipyridin]-5-yl)-N-(pyridin-2-yl)acetamide]: the IC50 (read-out: IC50 μM (in range)) was greater than 0.1 µM. Moreover, the inhibition at 10 µM (compound at 10 μM) was determined as 87%.

With `N#CN1CCC=C(c2ccc(CC(=O)Nc3ccc(F)cn3)cn2)C1` [Compound 103, 2-(1′-cyano-1′,2′,5′,6′-tetrahydro-[2,3′-bipyridin]-5-yl)-N-(5-fluoropyridin-2-yl)acetamide], the IC50 (read-out: IC50 μM (in range)) is 0.01 to 0.1 µM. Besides, the inhibition at 10 µM (compound at 10 μM) came out at 98%. Taken in the same sequence, the figures for `Cc1ccc(NC(=O)Cc2ccc(C3=CCCN(C#N)C3)nc2)nc1` [Compound 104, 2-(1′-cyano-1′,2′,5′,6′-tetrahydro-[2,3′-bipyridin]-5-yl)-N-(5-methylpyridin-2-yl)acetamide] were 0.01 to 0.1 µM and 79%. For `N#CN1CCC=C(c2ccc(CC(=O)Nc3cc(Cl)c(Cl)cn3)cn2)C1` [Compound 105, 2-(1′-cyano-1′,2′,5′,6′-tetrahydro-[2,3′-bipyridin]-5-yl)-N-(4,5-dichloropyridin-2-yl)acetamide] the same measures were less than 0.01 µM and 100%.

As to `N#CN1CCC=C(c2ccc(CC(=O)Nc3ccc(C4CC4)cn3)cn2)C1` [Compound 106, 2-(1′-cyano-1′,2′,5′,6′-tetrahydro-[2,3′-bipyridin]-5-yl)-N-(5-cyclopropylpyridin-2-yl)acetamide], the concentration for half-maximal inhibition (IC50) (read-out: IC50 μM (in range)) is less than 0.01 µM. Moreover, the inhibition at 10 µM (compound at 10 μM) is 90%. Taken in the same sequence, the figures for `CSc1ccc(NC(=O)Cc2ccc(C3=CCCN(C#N)C3)nc2)nc1` [Compound 107, 2-(1′-cyano-1′,2′,5′,6′-tetrahydro-[2,3′-bipyridin]-5-yl)-N-(5-(methylthio)pyridin-2-yl)acetamide] were 0.01 to 0.1 µM and 95%. Consider `N#CN1CCC=C(c2ccc(CC(=O)Nc3cnc(Cl)cn3)cn2)C1` [Compound 108, N-(5-chloropyrazin-2-yl)-2-(1′-cyano-1′,2′,5′,6′-tetrahydro-[2,3′-bipyridin]-5-yl)acetamide], for which, under “read-out: IC50 μM (in range)”, the IC50 was 0.01 to 0.1 µM. For the setting “compound at 10 μM”, the inhibition at 10 µM stood at 85%. For `CN(C)c1cc(NC(=O)Cc2ccc(C3=CCCN(C#N)C3)nc2)ncc1Cl` [Compound 109, N-(5-chloro-4-(dimethylamino)pyridin-2-yl)-2-(1′-cyano-1′,2′,5′,6′-tetrahydro-[2,3′-bipyridin]-5-yl)acetamide] the same measures were 0.01 to 0.1 µM and 89%. On to `COc1cc(NC(=O)C(C)(C)c2ccc(C3=CCCN(C#N)C3)nc2)ncc1Cl` [Compound 110, N-(5-chloro-4-methoxypyridin-2-yl)-2-(1′-cyano-1′,2′,5′,6′-tetrahydro-[2,3′-bipyridin]-5-yl)-2-methylpropanamide], for which the inhibition at 10 µM (compound at 10 μM) was determined as 57%.

In the case of `COc1cc(NC(=O)Cc2ccc(C3=CCCN(C#N)C3)cn2)ncc1Cl` [Compound 111, N-(5-chloro-4-methoxypyridin-2-yl)-2-(1′-cyano-1′,2′,5′,6′-tetrahydro-[3,3′-bipyridin]-6-yl)acetamide], the IC50 (read-out: IC50 μM (in range)) is 0.01 to 0.1 µM. Besides, for the setting “compound at 10 μM”, the inhibition at 10 µM is 94%. For `COc1cc(NC(=O)Cc2ccc(C3=CCCN(C#N)C3)cc2Cl)ncc1Cl` [Compound 112, 2-(2-chloro-4-(1-cyano-1,2,5,6-tetrahydropyridin-3-yl)phenyl)-N-(5-chloro-4-methoxypyridin-2-yl)acetamide] the same measures were 0.01 to 0.1 µM and 90%. For `COc1cc(NC(=O)Cc2ccc(C3=CCCN(C#N)C3)cc2F)ncc1Cl` [Compound 113, N-(5-chloro-4-methoxypyridin-2-yl)-2-(4-(1-cyano-1,2,5,6-tetrahydropyridin-3-yl)-2-fluorophenyl)acetamide] the same measures were 0.01 to 0.1 µM and 92%.

On to `COc1cc(NC(=O)Cc2ccc(C3=CCCN(C#N)C3)cc2)ncc1Cl` [Compound 114, N-(5-chloro-4-methoxypyridin-2-yl)-2-(4-(1-cyano-1,2,5,6-tetrahydropyridin-3-yl)phenyl)acetamide], for which the IC50 (read-out: IC50 μM (in range)) was less than 0.01 µM. Further, under “compound at 10 μM”, the inhibition at 10 µM was 91%. Taken in the same sequence, the figures for `COc1cc(NC(=O)Cc2ccc(C3=CC4CN(C#N)CC4C3)cc2)ncc1Cl` (centres unmarked) [Compound 115, N-(5-chloro-4-methoxypyridin-2-yl)-2-(4-(2-cyano-1,2,3,3a,4,6a-hexahydrocyclopenta[c]pyrrol-5-yl)phenyl)acetamide] were 0.01 to 0.1 µM and 98%.

On to `COc1cc(NC(=O)Cc2ccc(C3=CCCN(C#N)C3)c(OC)c2)ncc1Cl` [Compound 116, N-(5-chloro-4-methoxypyridin-2-yl)-2-(4-(1-cyano-1,2,5,6-tetrahydropyridin-3-yl)-3-methoxyphenyl)acetamide], for which, for the setting “compound at 10 μM”, the inhibition at 10 µM was found to be 23%. For the molecule `COc1cc(NC(=O)Cc2cnc(C3=CCCN(C#N)C3)c(OC)c2)ncc1Cl` [Compound 117, N-(5-chloro-4-methoxypyridin-2-yl)-2-(1′-cyano-3-methoxy-1′,2′,5′,6′-tetrahydro-[2,3′-bipyridin]-5-yl)acetamide], the IC50 (read-out: IC50 μM (in range)) was less than 0.01 µM. For the same molecule, for the setting “compound at 10 μM”, the inhibition at 10 µM was found to be 88%. Taken in the same sequence, the figures for `CN1CC[C@H](Oc2cc(NC(=O)Cc3ccc(C4CCN(C#N)CC4)nc3)ncc2Cl)C1` [Compound 118, (S)-N-(5-chloro-4-((1-methylpyrrolidin-3-yl)oxy)pyridin-2-yl)-2-(6-(1-cyanopiperidin-4-yl)pyridin-3-yl)acetamide] were greater than 0.1 µM and 81%. As to `CN1CC[C@@H](Oc2cc(NC(=O)Cc3ccc(C4CCN(C#N)CC4)nc3)ncc2Cl)C1` [Compound 119, (R)-N-(5-chloro-4-((1-methylpyrrolidin-3-yl)oxy)pyridin-2-yl)-2-(6-(1-cyanopiperidin-4-yl)pyridin-3-yl)acetamide], under “read-out: IC50 μM (in range)”, the half-maximal inhibitory concentration (IC50) was greater than 0.1 µM. Also, the inhibition at 10 µM (compound at 10 μM) worked out at 78%. Taken in the same sequence, the figures for `COc1cc(NC(=O)Cc2cnc(C3=CCN(C#N)CC3)c(OC)c2)ncc1Cl` [Compound 120, N-(5-chloro-4-methoxypyridin-2-yl)-2-(1′-cyano-3-methoxy-1′,2′,3′,6′-tetrahydro-[2,4′-bipyridin]-5-yl)acetamide] were less than 0.01 µM and 89%. In the case of `COc1cc(NC(=O)Cc2cnc(C3CCN(C#N)CC3)c(OC)c2)ncc1Cl` [Compound 121, N-(5-chloro-4-methoxypyridin-2-yl)-2-(6-(1-cyanopiperidin-4-yl)-5-methoxypyridin-3-yl)acetamide], the half-maximal inhibitory concentration (IC50) (read-out: IC50 μM (in range)) is less than 0.01 µM. Besides, for the setting “compound at 10 μM”, the inhibition at 10 µM stood at 82%.

Take `COc1cc(CC(=O)Nc2cc(O[C@@H]3CCOC3)c(Cl)cn2)cnc1C1=CCN(C#N)CC1` [Compound 122, (R)-N-(5-chloro-4-((tetrahydrofuran-3-yl)oxy)pyridin-2-yl)-2-(1′-cyano-3-methoxy-1′,2′,3′,6′-tetrahydro-[2,4′-bipyridin]-5-yl)acetamide]: the 50% inhibitory concentration (IC50) (read-out: IC50 μM (in range)) is less than 0.01 µM. In addition, the inhibition at 10 µM (compound at 10 μM) was 90%. For `COc1cc(CC(=O)Nc2cc(O[C@@H]3CCOC3)c(Cl)cn2)cnc1C1CCN(C#N)CC1` [Compound 123, (R)-N-(5-chloro-4-((tetrahydrofuran-3-yl)oxy)pyridin-2-yl)-2-(6-(1-cyanopiperidin-4-yl)-5-methoxypyridin-3-yl)acetamide] the same measures were less than 0.01 µM and 86%. Taken in the same sequence, the figures for `COc1cc(NC(=O)Cc2ccc(C3CCN(C#N)CC3)nc2)ncc1C1CC1` [Compound 124, 2-(6-(1-cyanopiperidin-4-yl)pyridin-3-yl)-N-(5-cyclopropyl-4-methoxypyridin-2-yl)acetamide] were greater than 0.1 µM and 86%.

A word on the IC50: it is the concentration that gives 50% inhibition. As usually defined, the inhibition is the percentage by which the read-out fell short of the control.
